Assay results: US20080300180A1, “Growth Hormone Secretagogue Receptor 1A Ligands” (Gastrotech Pharma A/S, priority 2004, published 2008)
“Also recorded” adds a separate entry of the source. Square brackets hold non-standard residues; d marks the D form. Ends that are not written are not given here. * marks the point of attachment. Octanoyl = CCCCCCCC(=O)*; GABA = NCCCC(=O)O

Test: Preclinical study evaluating the long-term efficacy of subcutaneous ghrelin, GTP-5 and GTP-6 in rats (weight gain, food intake, fat pads)
Format: in vivo, rat
Settings: for Total weight increase in the animals, Mean ± S.D.: Sprague-Dawley rats, n=8, s.c. twice daily; for Body weight gain compared with saline group (in words) / Cumulative food intake compared with control group (in words) / Epididymal fat depots (fat pad weight, in words) / Subcutaneous fat depots (fat pad weight, in words): rats, s.c. twice daily
Procedure: 48 (Sprauge-Dawley (SD) IGS BR) rats were used in the study. The animals were caged individually and fed a commercial diet, R34, from Lactamin AB, Sweden. They were given free access to water. All animals were allowed an acclimatisation period of a minimum of 7 days prior to the commencement of the experiment. The animals were separated in six groups (n=8) and treated twice daily with subcutaneous injections as follows: • Group 1. Control (NaCl). • Group 2. Positive control Ghrelin 200 μg/kg body weight/injection. • Group 3. GTP-5 50 μg/kg body weight/injection. • Group 4. GTP-5 200 μg/kg body weight/injection. • Group 5. GTP-6 50 μg/kg body weight/injection. • Group 6. GTP-6 200 μg/kg body weight/injection.
The weight of the animals, and their food and water were recorded daily. The animals were checked twice daily for change in food intake, activity and fur quality as signs of a change in general health status.
Pre-dose, day 7 and 14 the animals were anaesthetized with Isofluran and blood was collected through the orbital plexus. The blood was analysed for clinical chemistry (ASAT, ALAT, bilirubin, albumin, creatinine, LD, GGT, potassium, sodium, glucose, IgF-1, insulin and leptin) and haematology (white blood cells, red blood cells, haemoglobin, platelets and haematokrit). After blood sampling the animals were killed and epididymal, subcutaneous and retroperitoneal fat pads were dissected and weighed.

[1] = 200 μg/kg body weight/injection
[2] = 200 μg/kg body weight/injection (high dose)
[3] = 200 μg/kg body weight/injection (high dose), listed as ghrelin
[4] = 50 μg/kg body weight/injection (low dose)

## Ghrelin: Positive control; 28 amino acid peptide hormone acylated on serine 3, endogenous GHS-R1a ligand (GSS(Octanoyl)FLSPEHQRVQQRKESKKPPAKLQPR; UniProt Q9UBU3 24-51, looked up) [reference compound]
[1]
  Total weight increase in the animals, Mean ± S.D.: 92.1 ± 9.0 g
[2]
  Body weight gain compared with saline group (in words): associated with increases
  Cumulative food intake compared with control group (in words): associated with increases
  Epididymal fat depots (fat pad weight, in words): significant increase
  Subcutaneous fat depots (fat pad weight, in words): significant increase; also recorded: induced an increase
[3]
  Body weight gain compared with saline group (in words): gained significantly more weight than the saline group
  Cumulative food intake compared with control group (in words): higher cumulative food intake

## GABAS(CO-C7 H15)FLSPEHQRVQQRKESKKPPAKLQPR ([GABA]S(Octanoyl)FLSPEHQRVQQRKESKKPPAKLQPR) [GTP-5, 27 amino acids long, octanoyl on the serine-3 sidechain (GABA = 4-aminobutyric acid)]
50 μg/kg body weight/injection
  Total weight increase in the animals, Mean ± S.D.: 75.4 ± 14.3 g
[1]
  Total weight increase in the animals, Mean ± S.D.: 78.2 ± 16.3 g
[4]
  Body weight gain compared with saline group (in words): higher weight gains than saline; also recorded: associated with increases
  Cumulative food intake compared with control group (in words): associated with increases
[2]
  Body weight gain compared with saline group (in words): higher weight gains than saline; also recorded: associated with increases
  Cumulative food intake compared with control group (in words): tended to eat more than the control group; also recorded: associated with increases
  Epididymal fat depots (fat pad weight, in words): significant increase
  Subcutaneous fat depots (fat pad weight, in words): significant increase; also recorded: induced an increase

## bASS(CO-C7 H15)FLSPEHQRVQQRKESKKPPAKLQPR (XSSFLSPEHQRVQQRKESKKPPAKLQPR; N-terminal beta-alanine; octanoyl on Ser3) [GTP-6, 28 amino acids long, octanoyl group on serine-3 sidechain (bA = beta-alanine)]
50 μg/kg body weight/injection
  Total weight increase in the animals, Mean ± S.D.: 79.3 ± 10.0 g
[1]
  Total weight increase in the animals, Mean ± S.D.: 77.8 ± 10.2 g
[4]
  Body weight gain compared with saline group (in words): higher weight gains than saline; also recorded: associated with increases
  Cumulative food intake compared with control group (in words): tended to eat more than the control group; also recorded: associated with increases
  Subcutaneous fat depots (fat pad weight, in words): significant increase; also recorded: induced an increase
[2]
  Body weight gain compared with saline group (in words): higher weight gains than saline; also recorded: associated with increases
  Cumulative food intake compared with control group (in words): tended to eat more than the control group; also recorded: associated with increases
  Subcutaneous fat depots (fat pad weight, in words): significant increase; also recorded: induced an increase
